Tests used:
[1] = system: 14 DIV mouse hippocampal neurons; assay: oAβ-induced spine loss: drebrin-positive spine density in cultured hippocampal neurons; format: cell-based; details: oAβ 1 µM + inhibitor 24 h vs oAβ alone; NVS-PAK1-1 10 nM, NVS-PAK1-C 10 nM, AZ13705339 1 nM, G5555 5 nM
Procedure: (§1) For in vitro study, all animal procedures were conducted in accordance with the National Institutes of Health Guide for the Care and Use of Laboratory Animals using protocols approved by the institutional animal care and use committee at Stanford University. Timed pregnant C57BL/6 mice (Strain code: 027) were purchased from Charles River Laboratories and delivered on embryonic day 15 (E15), after which E16 embryos were used for primary hippocampal cultures. Primary embryonic mouse hippocampal neuron cultures were plated on poly‐D‐lysine‐coated (10 µg/mL) glass cover slips at 40,000 to 50,000 cells per well in 12‐well plates (Corning Life Sciences). Cells were seeded in plating medium DMEM/F12 supplemented with 10% fetal bovine serum and 1 × penicillin/streptomycin (PS) for 2 hours. Medium was then changed to B‐27 Plus Neuronal Culture System (Invitrogen) supplemented with PS, and 2 mM glutamine.
(§2) Immunofluorescence was performed as described previously.[24] Briefly, cultured hippocampal neurons were fixed in 4% formaldehyde for 20 minutes, permeabilized for 6 minutes in 80% ice‐cold methanol, and incubated with primary antibodies at 4°C overnight. Primary antibodies used were rabbit polyclonal MAP2 antibody for labeling dendrites (1:1000, #8707, Cell Signaling) and mouse monoclonal drebrin antibody for labeling dendritic spines (1:300; Cat#ADI‐NBA‐110, Enzo). Secondary antibodies consisted of donkey antirabbit or antimouse conjugated with either FITC or Cy3 (1:400; Jackson ImmunoResearch Laboratories, Inc.).
(§3) The cultured hippocampal neurons were imaged using an oil‐based 63x objective on a Leica Stellaris 5 confocal microscope. The cell nucleus was stained with DAPI and imaged at a wavelength of 405 nm (blue channel), the dendrites stained by MAP2 were imaged at 488 nm wavelength (green channel), and the drebrin‐stained spines were imaged at a wavelength of 561 nm (red channel). Z‐stack images of neurons were acquired at a 1024 × 1024 resolution, a zoom factor of 1.0, and a z‐step size of 0.5 µm. The number of steps for every z‐stack picture of a neuron were determined by the size of the neuron in the z‐plane, to ensure that the entirety of a neuron is captured in the picture. The areas to be imaged were selected systematically, starting from the top‐left region to proceeding to the bottom‐right region of a coverslip. For imaging, preference was given to field of views containing isolated neurons versus clustered neurons.
For quantification of drebrin‐positive spines in vitro, the images were analyzed using Imaris 9.3 software. Each image consisted of one major neuron and the “filaments” option in Imaris was applied to manually trace along the dendrites of every neuron, by placing starting and seed points at the beginning and along the length of the dendrites, respectively. The largest dendrite diameter (i.e., Starting Point) was set at 9.00 µm threshold while the thinnest dendrite diameter (i.e., Seed Point) was set at 1.00 µm threshold. After manually tracing the dendrites, the spines along the dendrites were assessed using the automatic “spine detection” function in Imaris. […] The spine density (number of spines/dendrite length) was then calculated for each neuron. All image acquisition and quantification were performed in a blind manner. For in vitro quantification of dendrite degeneration, Neurolucida (MBF Biosciences) in the manual mode was used to measure the total dendritic length, numbers of dendrites, and dendritic complexity for each neuron.

[2] = system: 14 DIV mouse hippocampal neurons; assay: oTau-induced spine loss: drebrin-positive spine density in cultured hippocampal neurons; format: cell-based; details: oTau 50 nM + inhibitor 24 h vs oTau alone; NVS-PAK1-1 10 nM, NVS-PAK1-C 10 nM, AZ13705339 1 nM, G5555 5 nM
Procedure: as §1, §2
The cultured hippocampal neurons were imaged using an oil‐based 63x objective on a Leica Stellaris 5 confocal microscope. The cell nucleus was stained with DAPI and imaged at a wavelength of 405 nm (blue channel), the dendrites stained by MAP2 were imaged at 488 nm wavelength (green channel), and the drebrin‐stained spines were imaged at a wavelength of 561 nm (red channel). […] The number of steps for every z‐stack picture of a neuron were determined by the size of the neuron in the z‐plane, to ensure that the entirety of a neuron is captured in the picture. […]
For quantification of drebrin‐positive spines in vitro, the images were analyzed using Imaris 9.3 software. […] After manually tracing the dendrites, the spines along the dendrites were assessed using the automatic “spine detection” function in Imaris. […] The spine density (number of spines/dendrite length) was then calculated for each neuron. All image acquisition and quantification were performed in a blind manner. For in vitro quantification of dendrite degeneration, Neurolucida (MBF Biosciences) in the manual mode was used to measure the total dendritic length, numbers of dendrites, and dendritic complexity for each neuron.

[3] = system: 14 DIV hippocampal neurons; assay: oAβ-induced dendrite degeneration (MAP2 dendrite length, number, complexity) in cultured hippocampal neurons; format: cell-based, mouse; details: oAβ 1 µM + inhibitor 24 h vs oAβ alone, NVS-PAK1-1 10 nM, AZ 1 nM, G 5 nM; for total dendrite length per neuron: PAK1-C 10 nM
Procedure: as §1, §2, §3
(§4) For quantification of drebrin‐positive spines in vitro, the images were analyzed using Imaris 9.3 software. Each image consisted of one major neuron and the “filaments” option in Imaris was applied to manually trace along the dendrites of every neuron, by placing starting and seed points at the beginning and along the length of the dendrites, respectively. The largest dendrite diameter (i.e., Starting Point) was set at 9.00 µm threshold while the thinnest dendrite diameter (i.e., Seed Point) was set at 1.00 µm threshold. After manually tracing the dendrites, the spines along the dendrites were assessed using the automatic “spine detection” function in Imaris. The thinnest spine diameter was set at 0.80 µm threshold while the maximum spine length was set at 5.00 µm. The spine density (number of spines/dendrite length) was then calculated for each neuron. All image acquisition and quantification were performed in a blind manner. For in vitro quantification of dendrite degeneration, Neurolucida (MBF Biosciences) in the manual mode was used to measure the total dendritic length, numbers of dendrites, and dendritic complexity for each neuron.

[4] = system: 14 DIV hippocampal neurons; assay: oTau-induced dendrite degeneration (MAP2 dendrite length, number) in cultured hippocampal neurons; format: cell-based, mouse; details: oTau 50 nM + inhibitor 24 h vs oTau alone, NVS-PAK1-1 10 nM, AZ 1 nM, G 5 nM; for total dendrite length per neuron: PAK1-C 10 nM
Procedure: as §1, §2, §3, §4

[5] = system: kinome; broad panel of proteases, receptors, and bromodomains; details: cited from earlier work

CNc1ncc2cc(-c3ccc(-c4cccc(C)n4)cc3Cl)c(=O)n(C[C@H]3OC[C@H](N)CO3)c2n1 [G5555]
drebrin-stained spine density (spine counts per µm of dendritic length) [1]: significantly higher spine counts
drebrin-stained spine density (spine counts per µm of dendritic length) [2]: significantly higher spine counts
dendrite number per neuron [3]: significantly increased dendrite number per neuron
total dendrite length per neuron [3]: Neither G nor PAK1‐C showed a significant dendrite length difference
dendrite number per neuron [4]: significantly increased dendrite number per neuron
total dendrite length per neuron [4]: Neither G nor PAK1‐C showed a significant dendrite length difference
off-target kinase inhibition [5]: inhibit off‐target kinases

CN(C)C(=O)N1CC[C@H](N=C2Nc3cc(F)ccc3N(CC(F)F)c3ccc(Cl)cc32)C1 [NVS‐PAK1‐C]
drebrin-stained spine density (spine counts per µm of dendritic length) [1]: not reflected
drebrin-stained spine density (spine counts per µm of dendritic length) [2]: not reflected
total dendrite length per neuron [3]: Neither G nor PAK1‐C showed a significant dendrite length difference
total dendrite length per neuron [4]: Neither G nor PAK1‐C showed a significant dendrite length difference

CCS(=O)(=O)c1cc(Nc2ncc(F)c(N(Cc3ccccc3C#N)c3cc(CO)ccc3C)n2)ccc1N1CCN(C)CC1 [AZ13705339]
drebrin-stained spine density (spine counts per µm of dendritic length) [1]: significantly higher spine counts
drebrin-stained spine density (spine counts per µm of dendritic length) [2]: significantly higher spine counts
dendrite number per neuron [3]: significantly increased dendrite number per neuron
total dendrite length per neuron [3]: preserved dendrite length
dendrite number per neuron [4]: significantly increased dendrite number per neuron
total dendrite length per neuron [4]: preserved dendrite length
off-target kinase inhibition [5]: inhibit off‐target kinases

— PMC12741935 (Alzheimer's & Dementia, 2025)
